# How the values were obtained:
# DoHH2 cells = test system: DoHH2 cells
# Description: The mice were divided into two groups, the first considered the “control” (N=7) and the second the chemotherapy or “chemo” (N=8) group. […] Following an initial scan to determine baseline stiffness, the control group received an injection of normal saline while the chemo group received 4 mg of cyclophosphamide (160 mg/kg). MRE was performed on each mouse using an experimental setup specifically designed to accommodate the mouse and providing the mouse with the requisite anesthesia, via a constant flow of isofluorane during the image acquisition. MRE was performed at different time points (baseline to 4 days post-injection). The experimental setup included a high-frequency electromechanical driver that was developed to produce localized vibrations in the tumor within the mouse at a frequency of 800 Hz. All experiments were performed on a 3.0 T whole-body MRI scanner using a specialized 6-cm diameter transmit-receive RF coil and an EPI based MRE sequence. The MRE imaging parameters included FOV=5 cm; TRITE=1100/99 msec; motion encoding gradient (MEG) frequency=800 Hz; MEG direction=SI, AP, RL; motion encoding sensitivity=3.98 μm/(π radians); BW=83.0 kHz. Volumetric measurements were obtained using both a caliper and measurements from a T2-weighted image data set in order to quantify treatment response. Elastograms (stiffness maps) were calculated using a Multiple Model Direct Inversion (MMDI) algorithm with a directional filter (Butterworth bandpass filter with cutoff frequencies 2-128 waves/FOV).
# Description for DoHH2 tumor cells: The process 230 starts at process block 232 with either the positioning of the subject in the bore of an MRI system and the coupling of an MRE drive or the positioning of an ex viva sample within an MRE system. […] Thus, the step of positioning the subject for imaging at process block 232 may be initiated within hours to days after the completion of chemotherapy, instead of weeks later, as required in traditional assessment techniques. Once the subject is positioned for MRE imaging, using a high-frequency pulse sequence, such as the example sequence described with respect to FIG. 3, raw MRE data is collected from the subject or sample at process block 234.
# After the raw MRE data is collected at process block 234, the data is pre-processed at process block 236. Pre-processing may include minimum discontinuity phase unwrapping, 2-dimensional filtering along, for example, eight evenly spaced directions in the imaging plane and 2-dimensional order-4 Butterworth bandpass filtering with cutoff wave numbers of 1 and 80 waves/FOV. Then, at process block 238, a 2-D phase gradient inversion is used to process the preprocessed data and produce elastograms. The phase gradient inversion may be done, for example, with a 5×5 window. Using the elastograms, at process block 240, regions of interest (ROIs) can be drawn on the tumor where wave penetration and phase signal to noise ratio were visually acceptable. Using the selected ROIs, the mean stiffness values in these regions of interest can then be measured for each slice, at process block 242, and the average of these values can then be reported as a stiffness value of tumors, at process block 244. Using this information, a determination of the response of the tumor to the chemotherapy can be determined.
# The tumor cells were maintained in RPMI 1640 medium supplemented with 10% heat-inactivated FCS (Sigma Chemical Co.), 50 U/ml penicillin G, 50 μg/ml gentamicin and 100 μg/ml streptomycin (all from Ufe Technologies, Grand Island, N.Y., USA) with the addition of 10 mM HEPES, 4.5 g/l glucose and 1 mM sodium pyruvate. […]
smiles,measurement,setting,value
O=P1(N(CCCl)CCCl)NCCCO1 (stereo not drawn) [cyclophosphamide],change in stiffness from baseline at day 4,"DoHH2 cells; Tukey HSD test, p=0.02",significant change in stiffness
same,change in stiffness from baseline at day 3,"DoHH2 cells; Tukey HSD test, p=0.04",significant change in stiffness
same,change in tumor volume,"DoHH2 cells; caliper and T2-weighted image measurements, baseline to day 4, p=0.59, no statistically significant change",remained the same or decreased slightly
same,average shear stiffness at day 4,"DoHH2 cells; in vivo MRE 800 Hz, 4 mg (160 mg/kg), day 4, N=8, baseline 9.885±1.74 kPa",8.237±1.93 kPa
same,average decrease in shear stiffness from baseline to day 4,"DoHH2 cells; in vivo MRE, 4 mg (160 mg/kg), N=8",1.649 kPa
same,change in stiffness in vivo before three days after injection,DoHH2 cells; time points before three days after injection,No changes in stiffness were observed
same,"tumor stiffness, Mean","DoHH2 tumor cells; CB17/SCID mice, subcutaneous DoHH2 tumors, 160 mg/kg (4 mg) intraperitoneally, tumors excised four hours later, MRE ex vivo, N=5",21.82 kPa
same,stiffness change 4 hours after drug administration (ex vivo),"DoHH2 tumor cells; ex vivo mouse tumor studies, 4 hours after drug administration",stiffness increased
same,change in tumor stiffness measured by MRE versus saline,"DoHH2 tumor cells; one-sided T-test between chemo and saline groups, p value 0.034, 4 hours after dosing",significant change in the tumor stiffness
